Experimental findings from patent US5620955A, “Bombesin receptor antagonists and uses thereof” (Peptide Technologies Corporation, priority 1993, dated 1997) are described below.

Read-outs that look alike come from different tables or passages of the source. Positions of bridges follow the written chain, without caps; N, C: chain ends. Non-standard residues stand in square brackets, D forms with d. Residues, ends and D or L forms follow the SMILES beside them. *: point of attachment. Chlorambucil = O=C(CCCc1ccc(N(CCCl)CCCl)cc1)*; NH(4-Br-phenethyl) = Brc1ccc(CCN*)cc1; X1 = O=C(CCCc1ccc(N(CCO)CCCl)cc1)*; 1Naphthoyl = O=C(c1cccc2ccccc12)*; Bz = O=C(c1ccccc1)*; NHPr = CCCN* Bounds are passed on as bounds.

The target of assay [1] is T1, BBN receptor (Homo sapiens, UniProt P30550).
T1 construct: endogenous in cells; host or cells: NCI-H345 (human SCLC)
In words: Inhibition of [125I]Tyr4-BBN binding to SCLC NCI-H345 membranes. The settings on record: for inhibition of BBN binding to SCLC membranes (in words): radiolabelled Tyr4-BBN. The protocol: (§1) Acinar cells from rat pancreas bind BBN and secrete amylase when treated with BBN. The ability of potential antagonists to bind to rat pancreatic acinar cells was examined by determining the ability of the compounds to inhibit the binding of radiolabelled BBN. […] Finally, antagonist activity of the compounds was determined by measuring the ability of compounds to prevent the release of amylase from cells in response to BBN. […] This cell line was also used to evaluate biological activities of potential antagonists derived from the structures of BBN and GRP. The binding of synthetic compounds to cellular membranes prepared from NCI-H345 was determined. The ability of potential antagonists to block the BBN-stimulated increase in cytosolic levels of Ca^++ was determined. Compounds showing inhibition were further tested to determine the effect on growth of two human SCLC cell lines in culture.
Potential antagonists were also evaluated for their ability to inhibit the binding of radiolabelled Tyr^4 -BBN to SCLC membranes and for their effects on BBN signal transduction in SCLC cells.

The next assay relates to NCI-H345. In words: Clonagenic assay, colony formation of NCI-H345. Format: cell-based, human. On the set-up: key to Growth: significantly reduced (R); had no effect (--) on th. The settings on record: compound 1 μM; clonal growth of a human tumor cell line. As to the method:
The effect of 1 to 1000 nM concentration of peptides on growth of NCI-H345 colonies stimulated by 10 nM BBN was measured in the agarose cloning system (Mahoud et al., Cancer Res. 51:1798 (1991); Staley et al., Peptides 12:145-149 (1991)). […] On the day of the assay, cells were harvested, centrifuged and suspended in the buffer. The agarose cloning system consisted of 3 ml of 0.5% agarose in SIT medium with 5% fetal bovine serum in six well plates. To a top layer, consisting of 3 ml HITES medium in 0.3% agarose, the peptides at two times concentration and 6×10^4 single viable cells, were added. For each peptide concentration, triplicate wells were plated. After two weeks, 1 ml of 0.1% p-iodo-nitrotetrazolium violet was added, and after 16 hours at 37° C., the plates were screened for colony formation; the number of colonies larger than […] in diameter were counted using a Bausch and Lomb Omnicon image analysis system.

Assay [2] deals with T1, BBN receptor. Description: Cytosolic Ca++ assay in SCLC cell line NCI-H345. Type of assay: cell-based. On the set-up: key: antagonized (A); had no effect (--) on the ability of 10 nM BBN to. The settings on record: compound 10 μM; 10 nM BBN elevation of cytosolic Ca++. As to the method: SCLC cell line NCI-H345 was cultured for two days in medium containing 10^-8 M hydrocortisone, 5 μg/ml bovine insulin, 10 μg/ml human transferrin, 10^-8 M β-estradiol and 3×10^-8 M Na2 SeO3. The cells were harvested and washed, resuspended in medium containing 20 mM HEPES, pH 7.4, and loaded with 5 μM Fura 2 AM (Calbiochem) for 30 minutes. The cells were centrifuged at 150×g for 10 minutes to remove extracellular dye and resuspended and placed in a spectrofluorometer cell equipped with stirring and 37° C. heating. The emission was read at 510 nm with 340 excitation (Moody et al., Biochem. Biophys. Res. Commun. 147:189 (1987)). The response of compounds at 5 μM was measured initially as a screen and compared to that of 10 nM BBN. The response of varying concentrations of peptide (nM to μM) in the presence of 10 nM BBN was determined.

In assay [3] the target is T2, BBN receptor (Rattus norvegicus, UniProt P52500). Description: Inhibition of bombesin-stimulated amylase release from rat pancreatic acini. Type of assay: cell-based. The settings on record: half-maximal inhibition of bombesin-stimulated amylase release from acini; mean ± s.e.m. As to the method: as §1
The incubation solution contained 1% albumin and the wash solution contained 0.2% albumin. The solution was equilibrated with 100% O2. Dispersed acini were suspended in 20 ml of solution. Samples of 1 ml were incubated in the presence of various concentrations of compounds in the presence of 1 nM bombesin. After the first incubation the samples were washed 4 times with wash solution at 4° C. The acini were then resuspended in fresh incubation buffer and incubated at 37° C. Amylase release was measured by the Phadebas reagent. Amylase secretion during a given incubation was expressed as the percentage of amylase present in the acini at the beginning of that incubation that was released into the extracellular medium.

For assay [4], the target named is T2, BBN receptor. In words: Inhibition of 125I bombesin binding to rat pancreatic acinar cells. The settings on record: inhibition of 125I bombesin binding; IC50 divided by radioligand concentration. As to the method: Inhibition of equilibrium binding of ^125 I labeled bombesin to acinar membranes by the compounds was determined. The Kd was determined by dividing IC50 (the concentration of synthetic compound required to inhibit 50% of the specific binding of labelled BBN) by the concentration of radiolabeled peptide.

Assay [5] concerns the target T2, BBN receptor. Description: Stimulation of amylase release from rat pancreatic acinar cells by the compound alone (agonist test). Format: cell-based.
Where [6] appears, read: 50% inhibition of specific [125I]Tyr4-BBN binding, NCI-H345, read-out: IC50.

T2 sequence (P52500 whole entry): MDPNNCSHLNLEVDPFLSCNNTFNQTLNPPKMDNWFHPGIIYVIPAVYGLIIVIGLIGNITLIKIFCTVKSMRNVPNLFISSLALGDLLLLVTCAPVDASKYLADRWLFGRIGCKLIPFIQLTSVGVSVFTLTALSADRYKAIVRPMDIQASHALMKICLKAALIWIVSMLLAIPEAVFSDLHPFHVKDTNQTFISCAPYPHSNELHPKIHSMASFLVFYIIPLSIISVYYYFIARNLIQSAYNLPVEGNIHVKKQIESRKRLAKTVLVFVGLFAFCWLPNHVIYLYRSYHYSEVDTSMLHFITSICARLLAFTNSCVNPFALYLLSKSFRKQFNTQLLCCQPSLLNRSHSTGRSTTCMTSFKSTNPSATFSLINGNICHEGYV
T1 sequence (P30550 whole entry): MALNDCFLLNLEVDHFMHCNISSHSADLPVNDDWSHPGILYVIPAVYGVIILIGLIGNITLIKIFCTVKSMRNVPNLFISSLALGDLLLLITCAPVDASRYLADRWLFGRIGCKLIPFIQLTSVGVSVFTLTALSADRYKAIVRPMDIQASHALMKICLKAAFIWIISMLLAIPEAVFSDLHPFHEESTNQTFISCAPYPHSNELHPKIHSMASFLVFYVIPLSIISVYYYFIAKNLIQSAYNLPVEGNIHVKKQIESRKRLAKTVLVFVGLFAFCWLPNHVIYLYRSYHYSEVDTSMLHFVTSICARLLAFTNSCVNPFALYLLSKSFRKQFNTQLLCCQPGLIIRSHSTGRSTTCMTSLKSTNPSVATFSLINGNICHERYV

For the compound `CCCNC(=O)[C@H]1CCC(=O)NCCCC[C@H](NC(C)=O)C(=O)N[C@@H](Cc2c[nH]c3ccccc23)C(=O)N[C@@H](C)C(=O)N[C@@H](C(C)C)C(=O)N[C@H](C)C(=O)N[C@@H](Cc2c[nH]cn2)C(=O)N1` [PCT 812] (Ac-KWAV[dA]H[dE]-NHPr; lactam 1-7), at BBN receptor [1] (setting [6]), the half-inhibitory concentration (IC50) was determined as 4 µM. Also, on BBN receptor [1], the “inhibition of BBN binding to SCLC membranes (in words)” value is on record as “only weak inhibition of BBN binding”. The Growth entry in the assay on NCI-H345 was “R”. Further, the “Ca++ effect” value at BBN receptor [2] is recorded as “A”.
Consider `CC(=O)N[C@H]1CCCCNC(=O)[C@H](CC(C)C)NC(=O)[C@H](Cc2c[nH]cn2)NC(=O)[C@H](C)NC(=O)[C@H](C(C)C)NC(=O)[C@H](C)NC(=O)[C@H](Cc2c[nH]c3ccccc23)NC(=O)[C@H](CCC(N)=O)NC(=O)[C@H](CC(N)=O)NC1=O` [PTC 803] (Ac-KNQWAVAHL; lactam 1-C), for which the IC50 is more than 3 µM against BBN receptor [3] and more than 10 µM at BBN receptor [1] (setting [6]). Also, the “Ca++ effect” value at BBN receptor [2] is recorded as “--”. This compound also returned an equilibrium dissociation constant (Kd) on BBN receptor [4] of more than 3 µM. At BBN receptor [5], this compound had a 50% effective concentration (EC50) of more than 3 µM.
As for `CC(=O)N[C@@H]1CCCCNC(=O)[C@H](CC(C)C)NC(=O)[C@H](Cc2c[nH]cn2)NC(=O)[C@@H](C)NC(=O)[C@H](C(C)C)NC(=O)[C@H](C)NC(=O)[C@H](Cc2c[nH]c3ccccc23)NC(=O)[C@H](CCC(N)=O)NC(=O)[C@H](CC(N)=O)NC1=O` [PTC 804] (Ac-[dK]NQWAV[dA]HL; lactam 1-C), the IC50 is more than 3 µM against BBN receptor [3] and 6 µM on BBN receptor [1] (setting [6]). At BBN receptor [1], the “inhibition of BBN binding to SCLC membranes (in words)” value is on record as “only weak inhibition of BBN binding”. Moreover, on BBN receptor [2], the “Ca++ effect” value was “--”. This compound showed a Kd at BBN receptor [4] of more than 3 µM. The compound also displayed an EC50 at BBN receptor [5] of more than 3 µM.
As for `CC(=O)N[C@@H]1CCCCNC(=O)[C@H](CC(C)C)NC(=O)[C@H](Cc2c[nH]cn2)NC(=O)[C@H](C)NC(=O)[C@H](C(C)C)NC(=O)[C@H](C)NC(=O)[C@H](Cc2c[nH]c3ccccc23)NC(=O)[C@H](CCC(N)=O)NC(=O)[C@H](CC(N)=O)NC1=O` [PTC 805] (Ac-[dK]NQWAVAHL; lactam 1-C), the results for the IC50 at BBN receptor [3] and at BBN receptor [1] (setting [6]) were more than 3 µM and more than 10 µM, respectively. Also, the “Ca++ effect” value at BBN receptor [2] is “--”. This compound gave a Kd at BBN receptor [4] of more than 3 µM. Besides, on BBN receptor [5], the EC50 is more than 3 µM.
As for `CC(=O)N[C@H]1CCCCNC(=O)[C@H](CC(C)C)NC(=O)[C@H](Cc2c[nH]cn2)NC(=O)[C@@H](C)NC(=O)[C@H](C(C)C)NC(=O)[C@H](C)NC(=O)[C@H](Cc2c[nH]c3ccccc23)NC(=O)[C@H](CCC(N)=O)NC(=O)[C@H](CC(N)=O)NC1=O` [PTC 806] (Ac-KNQWAV[dA]HL; lactam 1-C), on BBN receptor [3], the 50% inhibitory concentration (IC50) is more than 3 µM. Further, on BBN receptor [4], the equilibrium dissociation constant (Kd) was more than 3 µM. The EC50 on BBN receptor [5] was more than 3 µM.
As for `CC(C)C[C@@H]1NC(=O)[C@H](Cc2c[nH]cn2)NC(=O)[C@@H](C)NC(=O)[C@H](C(C)C)NC(=O)[C@H](C)NC(=O)[C@H](Cc2c[nH]c3ccccc23)NC(=O)[C@H](CCC(N)=O)NC(=O)[C@H](CC(N)=O)NC(=O)[C@H](NC(=O)c2ccccc2)CCCCNC1=O` [PTC 807] (Bz-[dK]NQWAV[dA]HL; lactam 1-C), the “Ca++ effect” value on BBN receptor [2] was “--”.
Take `CC(C)C[C@@H]1NC(=O)[C@H](Cc2c[nH]cn2)NC(=O)[C@@H](C)NC(=O)[C@H](C(C)C)NC(=O)[C@H](C)NC(=O)[C@H](Cc2c[nH]c3ccccc23)NC(=O)[C@H](CCC(N)=O)NC(=O)[C@H](CC(N)=O)NC(=O)[C@H](NC(=O)c2cccc3ccccc23)CCCCNC1=O` [PTC 808] (1Naphthoyl-[dK]NQWAV[dA]HL; lactam 1-C): the “Ca++ effect” value at BBN receptor [2] is recorded as “--”.
Take `CC(C)C[C@@H]1NC(=O)[C@H](Cc2c[nH]cn2)NC(=O)[C@@H](C)NC(=O)[C@H](C(C)C)NC(=O)[C@H](C)NC(=O)[C@H](Cc2c[nH]c3ccccc23)NC(=O)[C@H](CCC(N)=O)NC(=O)[C@H](CC(N)=O)NC(=O)[C@H](Nc2ccc([N+](=O)[O-])cc2[N+](=O)[O-])CCCCNC1=O` [PTC 809]: the 50% inhibitory concentration (IC50) against BBN receptor [3] was more than 3 µM; on BBN receptor [1] (setting [6]), more than 10 µM. Moreover, the “Ca++ effect” value at BBN receptor [2] is listed as “--”. This compound also showed a Kd on BBN receptor [4] of more than 3 µM. In addition, the EC50 at BBN receptor [5] was more than 3 µM.
As to `CCOC(=O)[C@H](CC(C)C)NC(=O)[C@H](Cc1c[nH]cn1)NC(=O)[C@@H](C)NC(=O)[C@@H](NC(=O)[C@H](C)NC(=O)[C@H](Cc1c[nH]c2ccccc12)NC(=O)[C@H](CCC(N)=O)NC(=O)[C@H](CC(N)=O)NC(=O)CCCc1ccc(N(CCO)CCCl)cc1)C(C)C` [PTC 815B] (X1-NQWAV[dA]HL-OEt), the IC50 at BBN receptor [1] amounted to 0.045 µM.
As for `CCOC(=O)[C@H](CC(C)C)NC(=O)[C@H](Cc1c[nH]cn1)NC(=O)[C@@H](C)NC(=O)[C@@H](NC(=O)[C@H](C)NC(=O)[C@H](Cc1c[nH]c2ccccc12)NC(=O)[C@H](CCC(N)=O)NC(=O)[C@H](CC(N)=O)NC(=O)CCCc1ccc(N(CCCl)CCCl)cc1)C(C)C` [PTC 815] (Chlorambucil-NQWAV[dA]HL-OEt), the figures for the 50% inhibitory concentration (IC50) on BBN receptor [3] and on BBN receptor [1] were 0.0085 ± 0.0005 µM and 0.035 µM, respectively. For the same compound, at BBN receptor [4], binding was put at a Kd of 0.0107 ± 0.0034 µM. For the same compound, at BBN receptor [5], the concentration giving a half-maximal response (EC50) is more than 3 µM.
`CC(=O)N[C@@H](Cc1c[nH]cn1)C(=O)N[C@@H](Cc1c[nH]c2ccccc12)C(=O)N[C@@H](C)C(=O)N[C@H](C(=O)N[C@H](C)C(=O)N[C@@H](Cc1c[nH]cn1)C(=O)NCCc1ccc(Br)cc1)C(C)C` [PTC 820] (Ac-HWAV[dA]H-{NH(4-Br-phenethyl)}): the results for the IC50 against BBN receptor [3] and at BBN receptor [1] were more than 3 µM and more than 10 µM, respectively. For the same compound, in the assay with NCI-H345, the Growth entry was “--”. In addition, the “Ca++ effect” value at BBN receptor [2] is reported as “--”. Besides, the equilibrium dissociation constant (Kd) on BBN receptor [4] was more than 3 µM. The same compound yielded a 50% effective concentration (EC50) on BBN receptor [5] of more than 3 µM.
